Converted amounts (≈) assume the structure as drawn. *1 amine or outer side, *2 acyl side, *3 side chain or, on linkers, in order; H or OH if unused. Where a SMILES comes first, the peptide text is derived from it. Bridges are numbered along the chain shown (N, C = ends). [ ]: non-standard residue; d: D form. The star is where a group is joined. TBMB = c1c(C[*:1])cc(C[*:3])cc1C[*:2]; NHDecyl = CCCCCCCCCCN*
Experiments:
lipid II = assay: Lipid II antagonization assay; format: cell-based, M. luteus; parameters: key to Result with antagonist Lipid II: +: antagonization of antibiotic activity; -: no antagonization of antibiotic activity; conditions: for Result with antagonist Lipid II: Supplemental table S10, peptide at 4x MIC, antagonist at 4 molar equivalents, M. luteus 1 x 10^6 CFU/ml, 16 h at 30°C, growth observed visually; for Effect of pre-incubation with lipid II on antibacterial activity: premixed with an excess of lipid II before addition of a live culture of M. luteus
Protocol: To assess the role of lipid II in the mode of action of the lipopeptides a lipid II antagonization assay was employed.[18],[33] This assay was performed by premixing P8-D-C10 or the optimized P8-D-(S6R, R15A)-C10 with an excess of lipid II prior to addition of a live culture of M. luteus. […] To probe the stereochemical aspects of lipid II recognition by the optimized P8-D-(S6R, R15A)-C10 lipopeptide we also prepared and tested the corresponding enantiomeric L-peptide species P8-L-(S6R, R15A)-C10. […] Given that lipid II is a chiral biomolecule we had expected the enantiomeric lipopeptides to have different activities based on the assumption that they would interact differently with lipid II. To further investigate this phenomenon we employed the same lipid II antagonization assay described above. […] To explain this observation we hypothesize that the two enantiomeric peptides interact primarily with the pyrophosphate moiety of lipid II and are therefore less influenced by the chiral elements present elsewhere in the lipid II molecule. The pyrophosphate group is known to be a binding site for many natural occurring lipid II binding peptides.[15],[16] […] To test the hypothesis that both the P8-D-(S6R, R15A)-C10 and P8-L-(S6R, R15A)-C10 lipopeptides interact with the pyrophosphate moiety we performed an additional antagonizaiton experiment using C55-PP.
(§1) Section 4 Biological and biochemical experiments
(§2) 4.1 Minimum inhibitory concentration assay
MIC values were determined by using the broth microdilution method. Peptides were dissolved first in DMSO and diluted with broth so that the final peptide concentration was 1024 µg/ml and the DMSO concentration was 4%. Peptide serial dilutions were made in TSB in a polypropylene 96-wells plate using 50 µl volumes. An overnight culture of the organism of interest was diluted to and OD600 of 0.01 and grown until they reach 0.5. The culture was then diluted to 1 x 10^6 CFU/ml and 50 µl of this suspension was added to each well. The highest concentrations were then 512 µg/ml peptide and 2% DMSO. The plates were incubated at the preferred growth temperature of the organism that was used and 250 rpm. […] When […]
(§3) determining the MICs of the lipidated peptides, the lipopeptides were first dissolved in DMSO and diluted with TSB so that the peptide concentration was 128 µg/ml and the DMSO concentration was 4%. After inoculation the highest peptide concentration evaluated was 64 µg/ml and the DMSO concentration was 2%. A DMSO control was tested for each strain to ensure the DMSO did not affect the growth of the particular strain. […]
4.4 Antagonization assays
Stock solutions of each peptide antibiotic were prepared so that their final concentration in the assay would be 4x MIC. Peptides were transferred to a 96 wells plate and lipid II or C15-P (farnesyl-phosphate) was added at 4 molar equivalents in a final volume of 50 µl. Each well received 50 µl of bacterial suspension (M. luteus) at 1 x 10^6 CFU/ml and the plates were incubated for 16 h at 250 rpm and 30°C. Growth was observed visually (see supplemental table S10 for results).

S. epidermidis (1587) = assay: microbe, parasite or virus in culture; format: cell-based
How it was run: (§4)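 Dilution series of peptide in TSB, up to 512 µg/ml final (lipopeptides up to 64 µg/ml), DMSO 2% final. Mid-log inoculum suspension at 1 x 10^6 CFU/ml, equal volume per well. Incubation at the strain's growth temperature with shaking.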

S. pyogenes (5448) = assay: microbe, parasite or virus in culture; format: cell-based
How it was run: as §4

B. subtilis (168) = assay: microbe, parasite or virus in culture; format: cell-based
How it was run: as §4

E. faecium E980 = assay: UDP-MurNAc-pentapeptide accumulation assay; format: cell-based, Enterococcus faecium; conditions: E. faecium E980, peptides at 10x MIC, 30 min, chloramphenicol 130 µg/ml pre-treatment, LCMS; triplicate measurements
Protocol: We next examined the effect of the optimized P8-D-(S6R, R15A)-C10 lipopeptide on cell wall biosynthesis in live bacteria. Specifically, we employed an assay where the accumulation of the soluble intracellular lipid II precursor UDP-MurNAc-pentapeptide is measured in response to antibiotic administration. Antibiotics known to interfere with cell wall biosynthesis by sequestration of lipid II (i.e. vancomycin) can lead to UDP-MurNAc-pentapeptide accumulation in the cytosol which can then be extracted and assessed by chromatographic means.[18],[33] […] The effect of the lipopeptides on bacterial cell morphology was further investigated using scanning electron microscopy. To this end, VRE 155 cells were imaged after exposure to either P8-D-(S6R, R15A)-C10 or nisin at 2× the MIC.
as §1, §2
MIC values were determined by using the broth microdilution method. […]
as §3, with “2%.” for “2%. A DMSO control was tested for each strain to ensure the DMSO did not affect the growth of the particular strain.”
Hemolysis was determined by measuring the absorption at 414 nm to measure the amount of free […]

[1] = Supplemental table S9, MIC values of Table 2 expressed in µM
[2] = Table 2, broth microdilution in TSB, 16 h, read visually, highest tested 64 µg/ml

| Compound | Result with antagonist Lipid II (lipid II) | Effect of pre-incubation with lipid II on antibacterial activity (lipid II) | MIC S. epidermidis (1587) (S. epidermidis (1587); [1]) | MIC S. epidermidis (1587) (S. epidermidis (1587); [2]) | MIC S. pyogenes (5448) (S. pyogenes (5448); [1]) | MIC S. pyogenes (5448) (S. pyogenes (5448); [2]) | MIC B. subtilis (168) (B. subtilis (168); [1]) | MIC B. subtilis (168) (B. subtilis (168); [2]) | Accumulation of UDP-MurNAc-pentapeptide (E. faecium E980) |
| --- | --- | --- | --- | --- | --- | --- | --- | --- | --- |
| CCCCCCCCCCNC(=O)CNC(=O)[C@@H]1CSCc2cc3cc(c2)CSC[C@H](NC(=O)[C@H](CC(C)C)NC(=O)[C@H](CC(C)C)NC(=O)[C@H](CCCNC(=N)N)NC(=O)[C@H](CCC(N)=O)NC(=O)[C@H](CC(C)C)NC(=O)[C@H](CC(C)C)NC(=O)[C@@H](NC(=O)[C@H](C)N)CSC3)C(=O)N2CCC[C@H]2C(=O)N[C@@H](Cc2ccc(O)cc2)C(=O)N[C@@H](CO)C(=O)N[C@@H]([C@@H](C)O)C(=O)N[C@@H](Cc2c[nH]cn2)C(=O)N[C@@H](C)C(=O)N1 [P8-L-(S6R, R15A)-C10] (H-ACLLQRLLCPYSTHACG-NHDecyl; linker 2-9-16 via TBMB; N-terminus assumed) | + | effectively antagonized | 30.5 µM (≈ 64.1 µg/mL) | 32 μg mL^–1 | 7.6 µM (≈ 16 µg/mL) | 8 μg mL^–1 | 7.6 µM (≈ 16 µg/mL) | 8 μg mL^–1 | significant accumulation |
| CCCCCCCCCCNC(=O)CNC(=O)[C@H]1CSCc2cc3cc(c2)CSC[C@@H](NC(=O)[C@@H](CC(C)C)NC(=O)[C@@H](CC(C)C)NC(=O)[C@@H](CCCNC(=N)N)NC(=O)[C@@H](CCC(N)=O)NC(=O)[C@@H](CC(C)C)NC(=O)[C@@H](CC(C)C)NC(=O)[C@H](NC(=O)[C@@H](C)N)CSC3)C(=O)N2CCC[C@@H]2C(=O)N[C@H](Cc2ccc(O)cc2)C(=O)N[C@H](CO)C(=O)N[C@H]([C@H](C)O)C(=O)N[C@H](Cc2c[nH]cn2)C(=O)N[C@H](C)C(=O)N1 [P8-D-(S6R, R15A)-C10] (H-[dA][dC][dL][dL][dQ][dR][dL][dL][dC][dP][dY][dS][dT][dH][dA][dC]G-NHDecyl; linker 2-9-16 via TBMB; N-terminus assumed) | + | antagonization of antibacterial activity | 60.9 µM (≈ 128 µg/mL) | 64 μg mL^–1 | – | 8–16 μg mL^–1 | 7.6 µM (≈ 16 µg/mL) | 8 μg mL^–1 | significant accumulation |

From paper PMC5853558, “De novo identification of lipid II binding lipopeptides with antibacterial activity against vancomycin-resistant bacteria” (Chemical Science, 2017)
